Laboratory results as given in ChEMBL document CHEMBL3627709, “Discovery of a Novel, Potent Spirocyclic Series of γ-Secretase Inhibitors” (J Med Chem, 2015).
Activity calls are given as the source filed them. No cut-off for these calls is given here.

Key:
[1] = target: Voltage-gated inwardly rectifying potassium channel KCNH2 (Homo sapiens, UniProt Q12809); test: Inhibition of human ERG
Cytochrome P450 2D6 [2] = target: T1, Cytochrome P450 2D6 (Homo sapiens, UniProt P10635); test: Inhibition of CYP2D6 (unknown origin) co-incubated with substrate and protein; format: ADME
T1 sequence (P10635 whole entry): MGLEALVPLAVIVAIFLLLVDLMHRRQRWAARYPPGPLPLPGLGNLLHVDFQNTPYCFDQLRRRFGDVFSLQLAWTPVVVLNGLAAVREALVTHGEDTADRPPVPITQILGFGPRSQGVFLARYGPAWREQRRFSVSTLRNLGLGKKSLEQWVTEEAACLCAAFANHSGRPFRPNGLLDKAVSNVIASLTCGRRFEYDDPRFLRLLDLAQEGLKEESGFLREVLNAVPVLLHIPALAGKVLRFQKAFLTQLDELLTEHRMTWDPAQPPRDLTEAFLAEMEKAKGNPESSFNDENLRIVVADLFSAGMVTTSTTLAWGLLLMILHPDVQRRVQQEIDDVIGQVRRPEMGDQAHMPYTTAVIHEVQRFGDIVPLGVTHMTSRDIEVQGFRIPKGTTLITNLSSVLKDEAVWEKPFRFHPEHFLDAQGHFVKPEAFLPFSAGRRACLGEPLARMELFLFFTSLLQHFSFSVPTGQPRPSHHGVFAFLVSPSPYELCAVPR

Cytochrome P450 3A4 [3] = target: T2, Cytochrome P450 3A4 (Homo sapiens, UniProt P08684); test: Inhibition of CYP3A4 (unknown origin) preincubated with protein for 30 mins followed by substrate addition; format: ADME
T2 sequence (P08684 whole entry): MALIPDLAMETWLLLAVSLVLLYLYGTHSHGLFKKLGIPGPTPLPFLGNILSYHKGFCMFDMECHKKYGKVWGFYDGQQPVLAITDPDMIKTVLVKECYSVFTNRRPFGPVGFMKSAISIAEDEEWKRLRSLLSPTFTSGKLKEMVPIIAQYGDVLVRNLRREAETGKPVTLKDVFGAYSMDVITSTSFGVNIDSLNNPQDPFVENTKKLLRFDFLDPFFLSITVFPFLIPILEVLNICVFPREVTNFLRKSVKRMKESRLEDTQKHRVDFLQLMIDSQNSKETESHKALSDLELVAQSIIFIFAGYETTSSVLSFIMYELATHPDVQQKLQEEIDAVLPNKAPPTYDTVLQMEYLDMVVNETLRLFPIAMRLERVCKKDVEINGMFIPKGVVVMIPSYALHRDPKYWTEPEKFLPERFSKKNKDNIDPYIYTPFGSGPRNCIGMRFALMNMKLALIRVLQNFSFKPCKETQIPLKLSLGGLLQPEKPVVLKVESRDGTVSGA

Cytochrome P450 2D6 [4] = target: T1, Cytochrome P450 2D6; test: Inhibition of CYP2D6 (unknown origin) preincubated with protein for 30 mins followed by substrate addition; format: ADME
Cytochrome P450 3A4 [5] = target: T2, Cytochrome P450 3A4; test: Inhibition of CYP3A4 (unknown origin) co-incubated with substrate and protein; format: ADME
Gamma-secretase [6] = test: Inhibition of gamma-secretase in HEK293 cell membranes using SPC99-Lon as substrate assessed as formation of amyloid beta 40 after 1 hr by electrochemiluminescence-based immunoassay; set-up: species or system Homo sapiens
Cytochrome P450 2C9 [7] = target: T3, Cytochrome P450 2C9 (Homo sapiens, UniProt P11712); test: Inhibition of CYP2C9 (unknown origin) co-incubated with substrate and protein; format: ADME
T3 sequence (P11712 whole entry): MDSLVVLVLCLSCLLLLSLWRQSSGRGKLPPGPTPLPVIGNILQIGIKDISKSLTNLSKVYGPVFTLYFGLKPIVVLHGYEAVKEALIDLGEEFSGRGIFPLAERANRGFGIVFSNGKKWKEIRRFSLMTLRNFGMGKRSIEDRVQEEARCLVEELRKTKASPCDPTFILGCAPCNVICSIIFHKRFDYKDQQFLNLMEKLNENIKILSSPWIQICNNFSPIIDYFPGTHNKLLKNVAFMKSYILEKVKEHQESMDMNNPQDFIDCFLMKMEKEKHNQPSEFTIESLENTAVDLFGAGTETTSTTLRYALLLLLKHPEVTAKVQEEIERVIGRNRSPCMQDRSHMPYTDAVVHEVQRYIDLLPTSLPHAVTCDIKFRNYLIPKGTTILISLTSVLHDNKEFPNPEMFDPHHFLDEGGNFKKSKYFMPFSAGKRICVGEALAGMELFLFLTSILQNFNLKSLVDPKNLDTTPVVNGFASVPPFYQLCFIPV

Cytochrome P450 2C9 [8] = target: T3, Cytochrome P450 2C9; test: Inhibition of CYP2C9 (unknown origin) preincubated with protein for 30 mins followed by substrate addition; format: ADME
Rattus norvegicus [9] = test: Antialzheimer activity in Sprague-Dawley rat assessed as reduction of total amylod beta level at 10 mg/kg, po after 3 hrs by immunoassay relative to vehicle-treated control; format: functional, organism-based
[10] = (§1) AUC (0 to 6 hrs) in Sprague-Dawley rat at 10 mg/kg, po by LC-MS/MS analysis; format: ADME, organism-based; set-up: time < 6 hr, dose 10 mg/kg, route oral; conditions: Sprague-Dawley, in vivo
[11] = Ratio of drug level in brain to plasma in Sprague-Dawley rat at 10 mg/kg, po; format: ADME, organism-based; conditions: brain and plasma, read-out: BPR
Gamma-secretase [12] = test: Inhibition of gamma-secretase in HEK293 cells using human APP Swedish/London double mutant as substrate assessed as formation of amyloid beta 40 after 5 to 6 hrs by sandwich immunoassay; format: cell-based
Gamma-secretase [13] = test: Inhibition of gamma-secretase in HEK293 cells using human APP Swedish/London double mutant as substrate assessed as formation of amyloid beta 42 after 5 to 6 hrs by sandwich immunoassay; format: cell-based
Rattus norvegicus [14] = test: Antialzheimer activity in Sprague-Dawley rat assessed as reduction of total amylod beta level in plasma at 10 mg/kg, po after 3 hrs by immunoassay relative to vehicle-treated control; format: functional; set-up: scale not given: the % may be the effect or the level left
Rattus norvegicus [15] = test: Antialzheimer activity in Sprague-Dawley rat assessed as reduction of total amylod beta level in cerebrospinal fluid at 10 mg/kg, po after 3 hrs by immunoassay relative to vehicle-treated control; format: functional; set-up: scale not given: the % may be the effect or the level left
Rattus norvegicus [16] = test: as §1; format: ADME, organism-based; set-up: time < 6 hr, dose 10 mg/kg, route oral; conditions: in vivo, 6 h, BLD = below limit of detection
Homo sapiens = species on record: Homo sapiens; test: Selectivity ratio of IC50 for human presenilin-2 to IC50 for human presenilin-1

Sequence of Voltage-gated inwardly rectifying potassium channel KCNH2 (Q12809 whole entry): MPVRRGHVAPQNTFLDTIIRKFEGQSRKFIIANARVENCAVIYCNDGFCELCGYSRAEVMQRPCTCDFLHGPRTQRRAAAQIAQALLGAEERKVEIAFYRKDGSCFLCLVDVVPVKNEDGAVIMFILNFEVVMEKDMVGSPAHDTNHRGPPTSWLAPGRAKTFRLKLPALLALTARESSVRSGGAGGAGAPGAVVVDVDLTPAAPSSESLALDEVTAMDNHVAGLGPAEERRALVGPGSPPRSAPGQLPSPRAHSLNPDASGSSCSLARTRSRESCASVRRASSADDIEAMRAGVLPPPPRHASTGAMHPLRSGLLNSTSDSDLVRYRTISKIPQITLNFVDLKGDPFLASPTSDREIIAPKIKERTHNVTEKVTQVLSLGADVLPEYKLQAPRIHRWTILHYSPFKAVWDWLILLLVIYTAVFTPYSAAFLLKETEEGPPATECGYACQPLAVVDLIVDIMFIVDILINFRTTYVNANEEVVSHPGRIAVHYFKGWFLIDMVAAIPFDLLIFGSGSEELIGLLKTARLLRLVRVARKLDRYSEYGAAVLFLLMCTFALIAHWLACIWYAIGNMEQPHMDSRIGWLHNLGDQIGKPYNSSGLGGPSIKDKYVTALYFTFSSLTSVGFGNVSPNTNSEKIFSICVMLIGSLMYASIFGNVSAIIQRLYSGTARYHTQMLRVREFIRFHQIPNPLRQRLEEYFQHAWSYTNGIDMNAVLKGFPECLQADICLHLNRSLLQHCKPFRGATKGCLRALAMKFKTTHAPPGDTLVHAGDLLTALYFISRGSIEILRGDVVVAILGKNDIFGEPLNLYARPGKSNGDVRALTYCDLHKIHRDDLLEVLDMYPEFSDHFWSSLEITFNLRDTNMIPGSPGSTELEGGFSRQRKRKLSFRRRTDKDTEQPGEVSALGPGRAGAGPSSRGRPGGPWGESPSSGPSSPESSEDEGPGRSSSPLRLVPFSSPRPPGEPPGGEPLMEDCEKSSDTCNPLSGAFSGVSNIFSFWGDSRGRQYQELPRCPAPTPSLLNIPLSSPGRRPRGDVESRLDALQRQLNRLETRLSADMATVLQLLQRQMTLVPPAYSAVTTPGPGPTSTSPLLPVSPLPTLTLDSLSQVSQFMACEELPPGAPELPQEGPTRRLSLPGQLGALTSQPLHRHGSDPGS

IC50 (Cytochrome P450 2D6 [2]) [µM] | IC50 (Cytochrome P450 3A4 [3]) [µM] | IC50 (Cytochrome P450 2D6 [4]) [µM] | IC50 (Cytochrome P450 3A4 [5]) [µM] | IC50 (Cytochrome P450 2C9 [7]) [µM] | IC50 (Cytochrome P450 2C9 [8]) [µM] | AUC(0-t) at 6 h [10] [µM·h] | Kp [11] | Ratio IC50 (Homo sapiens) | SMILES | inhibition (INH) [1] | IC50 (Gamma-secretase [6]) [µM] | Activity (Rattus norvegicus [9]) | IC50 (Gamma-secretase [12]) [µM] | IC50 (Gamma-secretase [13]) [µM] | Activity (Rattus norvegicus [14]) [%] | Activity (Rattus norvegicus [15]) [%] | AUC (Rattus norvegicus [16])
> 30 | 11.5 | > 30 | 11 | 23.4 | 21.1 |  |  |  | O=S(=O)(c1ccc(Cl)cc1)[C@@]12CCCC(CO)(CO)[C@@H]1COc1c(F)ccc(F)c12 | Not Active | 0.251 |  |  |  |  |  | 
> 20 | > 20 | > 20 | > 20 | > 20 | > 20 | 3.31 | 0.2 |  | O=S1(=O)CCC2(CCC[C@@]3(S(=O)(=O)c4ccc(Cl)cc4)c4c(F)ccc(F)c4OC[C@@H]23)CC1 | Not Active |  | inactive |  |  |  |  | 
 |  |  |  |  |  |  |  |  | O=S(=O)(c1ccc(Cl)cc1)[C@@]12CCC[C@]3(CCOC3)[C@@H]1COc1c(F)ccc(F)c12 (stereo in doubt; (+)-14b) |  | 0.142 |  | 0.104 | 0.063 |  |  | 
> 30 |  | > 30 |  | < 0.3 | < 0.3 | 2.35 | 0.2 |  | O=S(=O)(N[C@H]1CC[C@@](c2cc(F)ccc2F)(S(=O)(=O)c2ccc(Cl)cc2)CC1)C(F)(F)F |  |  |  |  |  | 71 |  | 
> 30 | 3.5 | > 30 | 9.6 | < 0.3 | < 0.3 |  |  |  | O=S(=O)(N[C@@H]1CC[C@@]2(S(=O)(=O)c3ccc(Cl)cc3)c3c(F)ccc(F)c3OC[C@H]2C1)C(F)(F)F |  |  |  |  |  |  |  | 
 |  |  |  |  |  |  |  |  | O=S(=O)(c1ccc(Cl)cc1)[C@@]12CCCC3(CCSCC3)[C@@H]1COc1c(F)ccc(F)c12 | Not Active | 0.0264 | inactive | 0.017 | 0.005 |  |  | BLD
17.9 | 21.4 | 30 | > 30 | 2.5 | 4.9 |  |  |  | O=S(=O)(NC[C@@H]1OCC[C@@]2(S(=O)(=O)c3ccc(Cl)cc3)c3c(F)ccc(F)c3OC[C@@H]12)C(F)(F)F |  |  |  |  |  |  |  | 
 |  |  |  |  |  |  |  |  | O=S(=O)(c1ccc(Cl)cc1)[C@@]12CCCC3(COC3)[C@@H]1COc1c(F)ccc(F)c12 | Not Active | 0.0101 |  | 0.013 | 0.007 |  |  | BLD
 |  |  |  |  |  |  |  | 1 | O=S(=O)(c1ccc(Cl)cc1)C1(c2cc(F)ccc2F)CCCCC1 |  | 0.0141 | inactive | 0.041 | 0.027 |  |  | BLD
 |  |  |  |  |  |  |  |  | CC1(C)OCC2(CCC[C@@]3(S(=O)(=O)c4ccc(Cl)cc4)c4c(F)ccc(F)c4OC[C@@H]23)CO1 | Not Active | 0.0666 |  | 0.033 | 0.012 |  |  | 

SMILES | IC50 (Cytochrome P450 2D6 [2]) [µM] | IC50 (Cytochrome P450 3A4 [3]) [µM] | IC50 (Cytochrome P450 2D6 [4]) [µM] | IC50 (Cytochrome P450 3A4 [5]) [µM] | IC50 (Cytochrome P450 2C9 [7]) [µM] | IC50 (Cytochrome P450 2C9 [8]) [µM] | AUC(0-t) at 6 h [10] [µM·h] | Kp [11] | Ratio IC50 (Homo sapiens) | inhibition (INH) [1] | IC50 (Gamma-secretase [6]) [µM] | Activity (Rattus norvegicus [9]) | IC50 (Gamma-secretase [12]) [µM] | IC50 (Gamma-secretase [13]) [µM] | Activity (Rattus norvegicus [14]) [%] | Activity (Rattus norvegicus [15]) [%] | AUC (Rattus norvegicus [16])
O=S(=O)(c1ccc(Cl)cc1)[C@@]12CCC[C@]3(CCOC3)[C@@H]1COc1c(F)ccc(F)c12 (stereo in doubt; (-)-14b) | > 20 | > 20 | > 20 | > 20 | > 20 | > 20 |  |  |  | Not Active | 0.0139 |  | 0.006 | 0.003 | 29 | 10 | 
O=S(=O)(N1CC[C@]2(CCC[C@@]3(S(=O)(=O)c4ccc(Cl)cc4)c4c(F)ccc(F)c4OC[C@@H]23)C1)C(F)(F)F | > 30 | > 20 | > 30 | > 30 | > 30 | > 30 |  |  |  | Not Active | 0.0233 |  | 0.013 | 0.008 |  |  | 
O=C1OCC[C@]12CCC[C@@]1(S(=O)(=O)c3ccc(Cl)cc3)c3c(F)ccc(F)c3OC[C@@H]21 | > 30 | > 30 | > 30 | > 30 | > 30 | > 30 |  |  |  | Not Active | 0.228 |  |  |  |  |  | 
